pIC50: −log10 of the molar value. Where two headings read alike, the source gives them in different places.
Legend:
[1] = biological target: T1, His-tagged human recombinant DDR-2 kinase domain (His-TEV-DDR2 467-855 aa) (Homo sapiens, UniProt Q16832); assay: Autophosphorylation assay for biochemical activity testing of DDR2 (HTRF)
T1 construct: His-TEV-DDR2 467-855 aa
T1 sequence (Q16832 467-855): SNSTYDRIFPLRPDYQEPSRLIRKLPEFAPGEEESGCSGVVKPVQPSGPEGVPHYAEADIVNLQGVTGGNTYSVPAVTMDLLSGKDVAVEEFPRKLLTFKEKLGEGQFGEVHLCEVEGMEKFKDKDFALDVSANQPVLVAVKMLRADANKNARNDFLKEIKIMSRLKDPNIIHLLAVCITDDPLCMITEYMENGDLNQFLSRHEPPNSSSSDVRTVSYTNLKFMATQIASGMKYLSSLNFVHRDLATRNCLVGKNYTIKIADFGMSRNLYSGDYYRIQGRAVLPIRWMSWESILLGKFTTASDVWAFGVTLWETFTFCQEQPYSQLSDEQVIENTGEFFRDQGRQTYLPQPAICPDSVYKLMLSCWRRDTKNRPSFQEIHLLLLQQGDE
How it was run: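 Phospho-tyrosine was detected by HTRF between XL665 anti-6His and cryptate anti-phosphotyrosine PT66 antibodies, using the emission ratio. Inhibition was referenced to the inhibitor-free reaction.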

[2] = test system: proMMP13 production by SW1353 cells; assay: Production of MMP13 (proMMP13 ELISA) by SW1353 cells upon stimulation with collagen type II; assay type: cell-based; details: Homo sapiens, SW1353, 72 h, read-out: IC50 [pro-MMP13]
Protocol: The binding of Collagen type II to the DDR2 receptor of the SW1353 cells initiate a signalling cascade resulting in the increase of MMP13 expression. MMP13 is released in the culture medium in its pro-form, the proMMP13 which can be measured with an ELISA.
DDR2 inhibitors are evaluated for their ability to block this signalling cascade and therefore proMMP13 production upon collagen stimulation.
SW1353 cells (ATCC, HTB-94), conserved in liquid nitrogen, are thawed and cultivated at 1.6.10^6 cells in a T75 in RPMI1640 supplemented with 2 mM Glutamin, 1 mM Na-Pyruvate, 10% FCS, at 37° C., 5% CO2 for three days. SW1353 cells are then harvested with trypsin/EDTA and resuspended in RPMI1640 supplemented with 2 mM Glutamin, 1 mM Na-Pyruvate, 25 mM HEPES and 0.5% FCS (assay medium) and inoculated in a 96 well plate at 30 000 cells/well in 100 μL of the assay medium and further incubated 24 hours at 37°, 5% CO2 to enable cell adhesion. For stimulation of the DDR2 receptor, 50 μL of a collagen type II solution 160 μg/mL (final concentration in the well is 40 μg/mL) will be added in each well as well as 50 μL of the different dilutions of the inhibitors (MSCs) from 0.003 μM to 10 μM (final concentration in the plate). Each condition is performed in four-plicates. After three additional days of culture, the supernatant will be harvested for proMMP13 measurement.
The Different Controls Present on Each Plate are Composed of Assay Medium with: Positive control (with the reference compound): 40 μg/mL Collagen type II, 0.03 μM Dasatinib (reference compound) in 0.1% DMSO Negative control (no inhibition): 40 μg/mL Collagen type II and 0.1% DMSO Medium control (no stimulation): 0.005% Acetic acid and 0.1% DMSO All wells contains 0.1% DMSO and 0.005% acetic acid.
The solutions needed are: • Collagen type II is diluted at 2 mg/mL in 0.25% acetic acid. This stock solution can be stored at 4° C. for a week and is diluted 1/12.5 in the assay medium (to obtain 160 μg/mL in 0.02% acetic acid) before being used in the assay. • MSCs from 0.012 to 40 μM in assay medium with 0.4% DMSO (they are then further diluted ¼ in the assay plate) • Dasatinib 0.12 μM in assay medium with 0.4% DMSO (it is then further diluted ¼ in the assay plate) • Acetic acid 0.02% in assay medium (control).
The harvested supernatants are either directly used or stored at −20° C. until use. ProMMP13 is measured with a commercial ELISA kit, according the recommendation of the manufacturer (see Annex). Briefly, 50 μL of each samples are used undiluted and the standard curve is realised in the assay medium. At the end of the assay the ELISA plate is read on a Paradigm MTP-Reader (Beckman Coulter) at 540 (reference wavelength) and 450 nm. All the absorbance values obtained at 450 nm are corrected with the absorbance at 540 nm and a ‘Four Parameter Fit’ is used to establish the standard curve. From the standard curve the concentrations of proMMP13 in all the samples are calculated. All the calculations are realised by the Paradigm software.
The data reported in the database are the % effect of the compounds at the two highest concentrations (10 and 3 μM) as well as the IC50.
% effect at the two highest concentrations is calculated according to the formula: […]
The IC50s are calculated with the software Graph Pad Prism (see tables in Example 1).

[3] = biological target: T2, HEK293 transfected with human DDR2 (Homo sapiens, UniProt Q16832); assay: Phospho-DDR2 cellular assay (collagen II induced DDR2 phosphorylation, ELISA); assay type: cell-based; details: read-out: IC50 [p-DDR2]
T2 construct: expressed in transfected cells; host or cells: HEK293 (PLT460F_(DDR2)-P7-1)
T2 sequence (Q16832 22-855): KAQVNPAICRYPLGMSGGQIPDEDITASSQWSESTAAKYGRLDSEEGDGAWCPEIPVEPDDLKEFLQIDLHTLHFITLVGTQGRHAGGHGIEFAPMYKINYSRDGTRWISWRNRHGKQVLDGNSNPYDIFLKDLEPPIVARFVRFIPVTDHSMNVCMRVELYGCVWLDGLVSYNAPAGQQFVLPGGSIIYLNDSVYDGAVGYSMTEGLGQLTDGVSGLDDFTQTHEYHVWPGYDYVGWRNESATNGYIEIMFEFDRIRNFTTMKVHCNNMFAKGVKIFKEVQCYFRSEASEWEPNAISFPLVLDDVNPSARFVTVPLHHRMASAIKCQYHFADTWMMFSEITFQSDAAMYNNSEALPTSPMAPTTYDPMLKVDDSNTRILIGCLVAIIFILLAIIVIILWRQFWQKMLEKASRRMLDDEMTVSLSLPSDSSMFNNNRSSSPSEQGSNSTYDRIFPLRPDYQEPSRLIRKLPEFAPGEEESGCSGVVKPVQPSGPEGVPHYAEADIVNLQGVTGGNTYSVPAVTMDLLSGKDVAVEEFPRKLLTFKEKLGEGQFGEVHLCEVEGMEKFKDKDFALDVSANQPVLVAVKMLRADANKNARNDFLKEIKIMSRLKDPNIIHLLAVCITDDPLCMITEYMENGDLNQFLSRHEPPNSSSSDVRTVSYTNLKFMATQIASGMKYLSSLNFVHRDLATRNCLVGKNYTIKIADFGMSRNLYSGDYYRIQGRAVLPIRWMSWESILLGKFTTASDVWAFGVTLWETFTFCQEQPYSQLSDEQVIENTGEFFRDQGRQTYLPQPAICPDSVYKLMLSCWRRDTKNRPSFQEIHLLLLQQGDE
How it was run: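 Cells seeded 48 h in 10% FBS, serum-starved 8 h, then given compound (5% DMSO) with 50 μg/ml chicken collagen II for 16 h at 37 °C. Lysates captured on anti-DDR2 antibody plates; phospho-DDR2 detected with HRP anti-phosphotyrosine antibody by chemiluminescence.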

[4] = 4 nM DDR2 kinase domain, 150 μM ATP, 150 min at 22° C.
[5] = biochemical DDR2 autophosphorylation
[6] = HEK293 transfected with human DDR2, 50 μg/ml chicken collagen II, 16 h

| SMILES | pIC50 [1, 4] | pIC50 [2] | pIC50 [1, 5] | pIC50 ([3]; cellular phospho-DDR2) | pIC50 [3, 6] |
| --- | --- | --- | --- | --- | --- |
| CNC(=O)c1cc(Oc2ccc(CNC(=O)Nc3cc(Cl)cnc3Cl)cc2)ccn1 [compound 8] | 6.89 | 6.56 |  |  |  |
| CNCCOc1ccccc1NC(=O)NCc1ccc(Oc2ccnc(C(=O)NC)c2)cc1 [compound 169, 4-(4-{3-[2-(2-Methylamino-ethoxy)-phenyl]-ureidomethyl}-phenoxy)-pyridine-2-carboxylic acid methylamide] |  |  | 5.55 | 5.72 |  |
| CNC(=O)c1cc(Oc2ccc(CNC(=O)Nc3cc(Cl)c(C)cc3OCC(C)(C)N)cc2)ccn1 [compound 185, 4-(4-{3-[2-(2-Amino-2-methyl-propoxy)-5-chloro-4-methyl-phenyl]-ureidomethyl}-phenoxy)-pyridine-2-carboxylic acid methylamide] |  |  | 6.34 | 6.76 |  |
| CNCCOc1ccc(S(=O)(=O)C(F)(F)F)cc1NC(=O)NCc1ccc(Oc2ccnc(C(=O)NC)c2)c(C)c1 [compound 189, 4-(2-Methyl-4-{3-[2-(2-methylamino-ethoxy)-5-trifluoromethanesulfonyl-phenyl]-ureidomethyl}-phenoxy)-pyridine-2-carboxylic acid methylamide] |  |  | 6.57 | 6.94 |  |
| Cn1cc(C(F)(F)F)cc(NC(=O)NCc2ccc(Oc3ccnc4[nH]ccc34)cc2)c1=O [compound 3] | 7.18 |  |  |  | 7.70 |
| CNC(=O)c1cc(Oc2ccc(CNC(=O)Nc3cc(C)c(Cl)cc3OCCN)cc2)ccn1 [compound 145, 4-(4-{3-[2-(2-Amino-ethoxy)-4-chloro-5-methyl-phenyl]-ureidomethyl}-phenoxy)-pyridine-2-carboxylic acid methylamide] |  |  | 7.04 | 7.19 |  |
| CNC(=O)c1cc(Oc2ccc(CNC(=O)Nc3cc(C(F)(F)F)ccc3OCCN)cc2C)ccn1 [compound 155, 4-(4-{3-[2-(2-Amino-ethoxy)-5-trifluoromethyl-phenyl]-ureidomethyl}-2-methyl-phenoxy)-pyridine-2-carboxylic acid methylamide] |  |  | 7.40 | 7.74 |  |
| CNC(=O)c1cc(Oc2ccc(CNC(=O)Nc3ccc(OC)nc3)cc2)ccn1 [compound 227, 4-{4-[3-(6-Methoxy-pyridin-3-yl)-ureidomethyl]-phenoxy}-pyridine-2-carboxylic acid methylamide] |  |  | 5.26 | 5.20 |  |
| CNC(=O)c1cc(Oc2ccc(CNC(=O)Nc3cc(C)ccn3)cc2)ccn1 [compound 212, 4-{4-[3-(4-Methyl-pyridin-2-yl)-ureidomethyl]-phenoxy}-pyridine-2-carboxylic acid methylamide] |  |  | 6.24 | 6.42 |  |
| CNC(=O)c1cc(Oc2ccc(CNC(=O)Nc3cc(Cl)c(C)cc3OCC3CCCN3)cc2)ccn1 (stereo not shown) [compound 182, 4-(4-{3-[5-Chloro-4-methyl-2-(pyrrolidin-2-ylmethoxy)-phenyl]-ureidomethyl}-phenoxy)-pyridine-2-carboxylic acid methylamide] |  |  | 7.23 | 7.52 |  |
| CNC(=O)c1cc(Oc2ccc(CNC(=O)Nc3cc(C)cnc3OC)cc2C)ccn1 [compound 20] | 6.96 |  |  |  | 7.39 |
| CNC(=O)c1cc(Oc2ccc(CNC(=O)Nc3cc(Cl)c(C)cc3OCCN(C)C)cc2)ccn1 [compound 174, 4-(4-{3-[5-Chloro-2-(2-dimethylamino-ethoxy)-4-methyl-phenyl]-ureidomethyl}-phenoxy)-pyridine-2-carboxylic acid methylamide] |  |  | 6.85 | 7.55 |  |
| CNC(=O)c1cc(Oc2ccc(CNC(=O)Nc3c(OC)cc(Cl)c(C)c3Cl)cc2)ccn1 [compound 103, 4-{4-[3-(2,4-Dichloro-6-methoxy-3-methyl-phenyl)-ureidomethyl]-phenoxy}-pyridine-2-carboxylic acid methylamide] |  |  | 4.85 | 5.34 |  |
| COc1ccc(C(F)(F)F)cc1NC(=O)Nc1ccc(Cc2nc3cc[nH]c(=O)c3[nH]2)cc1 [compound 3] | 7.21 |  |  |  | 6.96 |

From patent US20150225369A1, “DDR2 INHIBITORS FOR THE TREATMENT OF OSTEOARTHRITIS” (Merck Patent GmbH, priority 2012, published 2015)
